Laboratory results reported in patent US20210363496A1, “METHOD FOR OBTAINING ARTIFICIAL NEUROMUSCULAR JUNCTION FROM PLURIPOTENT STEM CELLS” (KYOTO UNIVERSITY, priority 2017, published 2021).
Entries after “also recorded” stand apart in the source; their conditions may differ.

Assays:
Assay type in all cases: cell-based, human
[1] = system: in vitro hNMJ culture (myotubes); assay: Calcium imaging of in vitro hNMJ; details: day 20 of NMJ differentiation, Ca imaging at five ROIs
Experimental: MyoD-201B7 cells were seeded at a density of 2.2×10^4 cells/well and differentiated into NMJs in a Costar 96-well black-wall/clear-bottom plate. On day 20, the growth medium was removed, and 100 μL Fluo-8 recording medium was added to the cells at 37° C. for 1 hour. The cells were washed twice with PBS and then imaged on In Cell Analyzer 2000. The fluorescence intensity was expressed as the F/F0 ratio.
MyoD-201B7 cells were seeded onto a Matrigel-coated, 96-well black-wall/clear-bottom plate at a density of 2.2×10^4 cells/well. Half of the medium in each well was exchanged every day until the cultures started contracting. The growth medium was removed, and cells were loaded with 100 μL Fluo-8 recording medium at 37° C. for 1 hour. The cells were washed twice with PBS and then the differentiation medium was added to the wells. Ca oscillations were monitored with the FDSS microplate reader, data points were collected at 1-minute intervals, and the data points were analyzed using FDSS software for frequency and amplitude quantification.

[2] = system: in vitro hNMJ culture (myotubes); assay: Motion vector analysis of myotube contraction in in vitro hNMJ; details: day 20 of NMJ differentiation
Experimental: (§1) MyoD-201B7 strain was subjected to myogenic differentiation according to the procedure described in Tanaka et al., PLOS ONE 2013. Specifically, MyoD-201B7 cells were seeded on a Matrigel-coated plate, and myogenic differentiation was induced by adding 1 μg/mL of doxycycline to myogenic differentiation medium (10% KSR+αMEM). Ten days after the addition of doxycycline, neural differentiation was induced by changing the medium to Neurobasal medium supplemented with neurotrophic factors (BDNF, GDNF, and NT3; 10 ng/ml each, R&D Systems). The medium was then replaced every 3 to 4 days to continue culturing.
Using α7s ILCE-7S (Sony Corporation), phase-contrast images using a red-filtered optical source and fluorescence (Fluo8, green) were continuously captured at 15 fps. Using the SI8000 Cell Motion Imaging System (Sony Corporation), which provides motion vector analysis based on the block matching method, motion quantification with the red-separated images in regions of interest (ROIs) and brightness analysis with the green-separated images were performed.
Both moving image capture and motion analysis were performed at 38 fps using the SI8000 Cell Motion Imaging System (Sony Corporation).

[3] = system: in vitro hNMJ culture; assay: Contribution of agrin to the in vitro NMJ system (NMJ area, TEM); details: long-term culture
Experimental: as §1
NMJ cultures were pre-fixed in 2% paraformaldehyde and 2% glutaraldehyde in 0.1 M phosphate buffer (pH 7.4) at 4° C. overnight. Post-fixation was done in 1% osmium tetroxide solution for 1 hour at room temperature. The samples were dehydrated in ethanol (30%, 50%, 70%, 90%, 95%, and 100%) and embedded in Epon resin. Ultrathin sections (80 nm) were cut and stained with uranyl acetate and alkaline lead citrate. The specimens were examined with a transmission electron microscope (H-7650, Hitachi, Ltd.).
Image analysis and quantification were performed by MetaMorph software (Molecular Devices, LLC. USA).

[4] = system: hNMJ culture expressing ChR2-EYFP; assay: Motion analysis of in vitro hNMJ culture by photoactivation (ChR2-EYFP); details: day 100 of NMJ differentiation
Experimental: The plasmid deposited at Addgene by Karl Deisseroth was purchased and used as a plasmid containing a photoactivation domain (pLenti-Synapsin-hChR2 (H134R)-EYFP-WPRE, Addgene plasmid number 20945). The lentivirus transduction system (ViraPower hiperform lentivirus expression system, Invitrogen) was used to transduce the target gene into neural cells. NMJ cultures were treated with virus-containing medium at 37° C. for 48 hours with 5% CO2. After virus infection, the medium was removed and the Neurobasal medium was added for target gene expression. The medium was changed every 3 to 4 days. EYFP expression was examined by confocal microscopy with proper optical settings. Photoactivation was performed with at 488-nm laser wavelength. In addition to EYFP signals, bright-field images were captured simultaneously for muscle movement analysis.

## [Ca+2] [Ca^2+, calcium]
[1]
  excitation of myotubes (transient Ca2+ elevation): enhanced

## O=C1CN(/N=C/c2ccc(-c3ccc([N+](=O)[O-])cc3)o2)C(O)=N1 [dantrolene]
[2]
  spontaneous synchronized contraction-like movement of myotubes: inhibited

## agrin
[3]
  area of the NMJ (ratio of NMJ region): increased
  morphology of myotubes and axon terminals by TEM: Myotube was well confined at fold of junction that bounds axon terminal

## curare
[1]
  excitation of myotubes (transient Ca2+ elevation): reduced; also recorded: stopped
[4]
  muscle contraction triggered by blue light (488 nm): inhibited
